In patent US11697646B2, “Triazole N-linked carbamoyl cyclohexyl acids as LPA antagonists” (BRISTOL-MYERS SQUIBB COMPANY, priority 2017, dated 2023) one finds IC50 data, which are given here for 26 compounds.

Where a name gives a salt, the structure may show the parent alone.

The target of one assay is T1, human LPA1 (Homo sapiens, UniProt Q92633).
T1 construct: expressed in transfected cells; host or cells: Chinese hamster ovary (CHO) cells
T1 sequence (Q92633 whole entry): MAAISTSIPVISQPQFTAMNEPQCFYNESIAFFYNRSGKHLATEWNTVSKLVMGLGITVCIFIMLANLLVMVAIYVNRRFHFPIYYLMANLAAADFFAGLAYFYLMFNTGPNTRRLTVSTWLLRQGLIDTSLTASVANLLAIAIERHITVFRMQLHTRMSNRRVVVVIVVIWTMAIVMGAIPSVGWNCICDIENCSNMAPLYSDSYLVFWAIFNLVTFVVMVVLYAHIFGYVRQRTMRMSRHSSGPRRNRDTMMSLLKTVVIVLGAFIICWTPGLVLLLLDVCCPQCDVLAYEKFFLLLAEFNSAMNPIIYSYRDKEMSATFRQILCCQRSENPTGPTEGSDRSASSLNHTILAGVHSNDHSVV
Kind of assay: LPA1 functional antagonist assay (calcium flux). Particulars: CHO cells overexpressing human LPA1; calcium flux induced by 10 nM LPA; read-out: hLPA1 IC50. In kind it is cell-based. Here is the method: The effectiveness of compounds of the present invention as LPA1 inhibitors can be determined in an LPA1 functional antagonist assay as follows:
The cells were then equilibrated to room temperature for 30 minutes before the assay. […] IC50 values were determined by fitting data to a 4-parameter logistic equation (GraphPad Prism, San Diego Calif.).
A general note: Calcium flux is commonly read through the fluorescence of an indicator in the cells.
For the compound `CCCC1(COC(=O)NCc2c(-c3ccc(O[C@H]4CCC[C@H](C(=O)O)C4)c(C)n3)nnn2C)CC1` [Example 60, (1S,3S)-3-((2-methyl-6-(1-methyl-5-(((((1-propylcyclopropyl)methoxy)carbonyl)amino)methyl)-1H-1,2,3-triazol-4-yl)pyridin-3-yl)oxy)cyclohexane-1-carboxylic acid], the IC50 (as a rule, the midpoint of a concentration-inhibition curve) amounted to 12 nM.
Same read-out and setting: next, `CCCCCCOC(=O)NCc1c(-c2ccc(O[C@H]3CCC[C@H](C(=O)O)C3)cn2)nnn1C` [Example 13, (1S,3S)-3-((6-(5-((((hexyloxy)carbonyl)amino)methyl)-1-methyl-1H-1,2,3-triazol-4-yl)pyridin-3-yl)oxy)cyclohexane-1-carboxylic acid]: 428 nM.
Still for that read-out and setting: then `Cn1nnc(-c2ccc(O[C@H]3CCC[C@H](C(=O)O)C3)cn2)c1NC(=O)OC1CCCC1` [Example 90, (1S,3S)-3-((6-(5-(((cyclopentyloxy)carbonyl)amino)-1-methyl-1H-1,2,3-triazol-4-yl)pyridin-3-yl)oxy)cyclohexane-1-carboxylic acid], with 149 nM.
The same measure, in the same setting: then `Cc1nc(-c2nnn(C)c2CNC(=O)N(C)[C@H](C)c2ccccc2)ccc1O[C@H]1CCC[C@H](C(=O)O)C1` [Example 131, (1S,3S)-3-((2-methyl-6-(1-methyl-5-((3-methyl-3-((R)-1-phenylethyl)ureido)methyl)-1H-1,2,3-triazol-4-yl)pyridin-3-yl)oxy)cyclohexane-1-carboxylic acid], with 217 nM.
`CCc1nc(-c2nnn(C)c2CNC(=O)N(C)Cc2ccccc2)ccc1O[C@H]1CCC[C@H](C(=O)O)C1` [Example 149, (1S,3S)-3-((6-(5-((3-benzyl-3-methylureido)methyl)-1-methyl-1H-1,2,3-triazol-4-yl)-2-ethyl-pyridin-3-yl)oxy)cyclohexane-1-carboxylic acid]: the IC50 amounted to 143 nM.
Take `Cn1nnc(-c2ccc(O[C@H]3CCC[C@H](C(=O)O)C3)c(C(F)(F)F)n2)c1CNC(=O)OCc1ccccc1` [Example 92, (1S,3S)-3-((6-(5-((((benzyloxy)carbonyl)amino)methyl)-1-methyl-1H-1,2,3-triazol-4-yl)-2-(trifluoro-methyl)pyridin-3-yl)oxy)cyclohexane-1-carboxylic acid]: the IC50 worked out at 14 nM.
Same read-out and setting: then `CCC1(COC(=O)NCc2c(-c3ccc(O[C@H]4CCC[C@H](C(=O)O)C4)c(C)n3)nnn2C)CC1` [Example 58, (1S,3S)-3-((6-(5-(((((1-ethylcyclopropyl)methoxy)carbonyl)amino)methyl)-1-methyl-1H-1,2,3-triazol-4-yl)-2-methylpyridin-3-yl)oxy)cyclohexane-1-carboxylic acid], with 38 nM; and `CCCC(NC(=O)NCc1c(-c2ccc(O[C@H]3CCC[C@H](C(=O)O)C3)c(C)n2)nnn1C)c1ccccc1` (mixture of isomers) [Example 119, (1S,3S)-3-((2-methyl-6-(1-methyl-5-((3-(1-phenylbutyl)ureido)methyl)-1H-1,2,3-triazol-4-yl)pyridin-3-yl)oxy)cyclo-hexane-1-carboxylic acid], with 187 nM; and `COCCOC(=O)NCc1c(-c2ccc(O[C@H]3CCC[C@H](C(=O)O)C3)c(C)n2)nnn1C` [Example 21, (1S,3S)-3-((6-(5-((((2-methoxyethoxy)carbonyl)amino)methyl)-1-methyl-1H-1,2,3-triazol-4-yl)-2-methylpyridin-3-yl)oxy)cyclohexane-1-carboxylic acid], with 1620 nM.
Still for that read-out and setting: next, `CCCCNC(=O)NCc1c(-c2ccc(O[C@H]3CCC[C@H](C(=O)O)C3)c(C)n2)nnn1C` [Example 124, (1S,3S)-3-((6-(5-((3-butylureido)methyl)-1-methyl-1H-1,2,3-triazol-4-yl)-2-methylpyridin-3-yl)oxy)cyclohexane-1-carboxylic acid]: 434 nM; `Cc1ccc(OC(=O)NCc2c(-c3ccc(O[C@H]4CCC[C@H](C(=O)O)C4)c(C)n3)nnn2C)cc1` [Example 62, (1S,3S)-3-((2-methyl-6-(1-methyl-5-((((p-tolyloxy)carbonyl)amino)methyl)-1H-1,2,3-triazol-4-yl)pyridin-3-yl)oxy)cyclohexane-1-carboxylic acid]: 148 nM; `CCCCN(C)C(=O)NCc1c(-c2ccc(O[C@H]3CCC[C@H](C(=O)O)C3)c(CC)n2)nnn1C` [Example 150, (1S,3S)-3-((6-(5-((3-butyl-3-methylureido)methyl)-1-methyl-1H-1,2,3-triazol-4-yl)-2-ethyl-pyridin-3-yl)oxy)cyclohexane-1-carboxylic acid]: 44 nM.
Take `CCC(CC)OC(=O)Nc1c(-c2ccc(O[C@H]3CCC[C@H](C(=O)O)C3)c(C)n2)nnn1C` [Example 142, (1S,3S)-3-((2-methyl-6-(1-methyl-5-(((pentan-3-yloxy)carbonyl)amino)-1H-1,2,3-triazol-4-yl)pyridin-3-yl)oxy)cyclohexane-1-carboxylic acid]: the IC50 stood at 30 nM.
With `CCCCOC(=O)Nc1c(-c2ccc(O[C@H]3CCC[C@H](C(=O)O)C3)c(CC)n2)nnn1C` [Example 232, (1 S,3 S)-3-[(6-{5-[(butoxycarbonyl)amino]-1-methyl-1H-1,2,3-triazol-4-yl}-2-ethylpyridin-3-yl)oxy]cyclo-hexane-1-carboxylic acid], the IC50 came out at 12 nM.
Still for that read-out and setting: then `Cc1nc(-c2nnn(C)c2CNC(=O)OCc2cccc(F)c2)ccc1O[C@H]1CCC[C@H](C(=O)O)C1` [Example 11, (1S,3S)-3-((6-(5-(((((3-fluorobenzyl)oxy)carbonyl)amino)methyl)-1-methyl-1H-1,2,3-triazol-4-yl)-2-methylpyridin-3-yl)oxy)cyclohexane-1-carboxylic acid], with 6 nM; and `CC[C@H](C)COC(=O)N(C)Cc1c(-c2ccc(O[C@H]3CCC[C@H](C(=O)O)C3)c(C)n2)nnn1C` [Example 2, (1S,3S)-3-((2-Methyl-6-(1-methyl-5-((methyl(((S)-2-methylbutoxy)carbonyl)amino)methyl)-1H-1,2,3-triazol-4-yl)pyridin-3-yl)oxy)cyclohexanecarboxylic acid], with 29 nM.
On the same count and under the same terms, then `CC[C@H](C)COC(=O)NCc1c(-c2ccc(O[C@H]3CCC[C@H](C(=O)O)C3)c(C)n2)nnn1C` [Example 1, (1S,3S)-3-((2-Methyl-6-(1-methyl-5-(((((S)-2-methylbutoxy)carbonyl)amino)methyl)-1H-1,2,3-triazol-4-yl)pyridin-3-yl)oxy)cyclohexanecarboxylic acid], with 18 nM; and `CCCCOC(=O)NCc1c(-c2ccc(O[C@H]3CCC[C@H](C(=O)O)C3)c(CC)n2)nnn1C` [Example 41, (1S,3S)-3-((6-(5-(((butoxycarbonyl)amino)methyl)-1-methyl-1H-1,2,3-triazol-4-yl)-2-ethylpyridin-3-yl)oxy)cyclohexane-1-carboxylic acid], with 8 nM; and `Cc1nc(-c2nnn(C)c2CCNC(=O)Cc2ccccc2)ccc1O[C@H]1CCC[C@H](C(=O)O)C1` [Example 238, (1S,3S)-3-((2-methyl-6-(1-methyl-5-(2-(2-phenylacetamido)ethyl)-1H-1,2,3-triazol-4-yl)pyridin-3-yl)oxy)cyclohexane-1-carboxylic acid], with 138 nM.
Same read-out and setting: next, `Cc1nc(-c2nnn(C)c2NC(=O)OCc2ccccc2)ccc1O[C@H]1CCC[C@H](C(=O)O)C1` [Example 80, (1S,3S)-3-((6-(5-(((benzyloxy)carbonyl)amino)-1-methyl-1H-1,2,3-triazol-4-yl)-2-methylpyridin-3-yl)oxy)cyclohexane-1-carboxylic acid]: 37 nM.

The assay is the same for the next values; noted with them: human LPA1 functional antagonist assay; read-out: hLPA1 IC50.
For `Cc1nc(-c2nnn(C)c2CN(C)C(=O)OCC2CC2)ccc1O[C@H]1CCC[C@H](C(=O)O)C1` [Example 205, (1S,3S)-3-((6-(5-((((cyclopropylmethoxy)carbonyl)(methyl)amino)methyl)-1-methyl-1H-1,2,3-triazol-4-yl)-2-methyl-pyridin-3-yl)oxy)cyclohexane-1-carboxylic acid, TFA salt], the IC50 came out at 333 nM.
On the same count and under the same terms, next, `Cc1nc(-c2nnn(C)c2CNC(=O)OCc2cccc(F)c2)cnc1O[C@H]1CCC[C@H](C(=O)O)C1` [Example 159, (1S,3S)-3-((5-(5-(((((3-fluorobenzyl)oxy)carbonyl)amino)methyl)-1-methyl-1H-1,2,3-triazol-4-yl)-3-methylpyrazin-2-yl)oxy)cyclo-hexane-1-carboxylic acid]: 122 nM.
Regarding `Cc1nc(-c2nnn(C)c2CNC(=O)OCC(C)CC(F)F)ccc1O[C@H]1CCC[C@H](C(=O)O)C1` (stereo partly drawn) [Example 196, (1S,3S)-3-((6-(5-((((4,4-difluoro-2-methylbutoxy)carbonyl)amino)methyl)-1-methyl-1H-1,2,3-triazol-4-yl)-2-methylpyridin-3-yl)oxy)cyclo-hexane-1-carboxylic acid], the IC50 was determined as 83 nM.
Still for that read-out and setting: next, `Cc1nc(-c2nnn(C)c2CNC(=O)OC[C@H]2C[C@@H]2C)ccc1O[C@H]1CCC[C@H](C(=O)O)C1` (stereo in doubt) [Example 183, (1S,3S)-3((2-methyl-6-(1-methyl-5-(((((trans-2-methylcyclopropyl)methoxy)carbonyl)amino)methyl)-1H-1,2,3-triazol-4-yl)pyridin-3-yl)oxy)cyclohexane-1-carboxylic acid]: 32 nM.
In the case of `Cc1nc(-c2nnn(C)c2CNC(=O)OCC(C)C2CC2)ccc1O[C@H]1CCC[C@H](C(=O)O)C1` (stereo partly drawn) [Example 184, (1S,3S)-3-((6-(5-((((2-cyclopropylpropoxy)carbonyl)amino)methyl)-1-methyl-1H-1,2,3-triazol-4-yl)-2-methylpyridin-3-yl)oxy)cyclo-hexane-1-carboxylic acid], the IC50 amounted to 41 nM.
Same read-out and setting: next, `Cc1nc(-c2nnn(C)c2CNC(=O)OCC2CC(F)(F)C2)ccc1O[C@H]1CCC[C@H](C(=O)O)C1` [Example 182, (1S,3S)-3-((6-(5-(((((3,3-difluoro-cyclobutyl)methoxy)carbonyl)amino)methyl)-1-methyl-1H-1,2,3-triazol-4-yl)-2-methylpyridin-3-yl)oxy)cyclohexane-1-carboxylic acid]: 85 nM.
